From US20210261570A1, “ANTIBIOTIC RESISTANCE BREAKERS” (KING'S COLLEGE LONDON, priority 2017, published 2021)
In brackets after ≈: the same amount, converted by molar mass. Entries after “also recorded” stand apart in the source; their conditions may differ. Counter-ions that a name gives are not always drawn. Like-named read-outs stand apart in the source and are kept apart here.

Key:
[1] = test system: multidrug resistant strains; assay: Reserpine growth assay in several multidrug resistant strains; type: cell-based; conditions: FIG. 27
Method: Reserpine was added at a final concentration of 10 g/mL (made up at 40 μg/mL in TSB, 50 μL per well). The bacteria were added at an OD of 0.01 in TSB (100 μL/well). The plate was a normal clear plate as used for MICs. OD was read every 30 minutes for 9 hours (the literature states 7 hours, but this is strain-dependent). Blanks of TSB and water were added to ensure no infections were present.

S. aureus SA3 = assay: MIC, extended Gram-positive panel; type: cell-based; conditions: for MIC: S. aureus SA3
S. aureus SA2 = type: cell-based; conditions: for MIC: S. aureus SA2, in µg/mL
S. epidermidis SE1 = assay: MIC, extended Gram-positive panel; type: cell-based; conditions: for MIC: S. epidermidis SE1, in µg/mL
S. aureus SA4 = assay: MIC, extended Gram-positive panel; type: cell-based; conditions: for MIC: S. aureus SA4
VSE775 = assay: MIC, microdilution broth method; type: cell-based, E. faecalis
EMRSA15 = assay: MIC, microdilution broth method; type: cell-based, Staphylococcus aureus
VRE12204 = assay: MIC, microdilution broth method; type: cell-based, E. faecium
M6 = assay: MIC, microdilution broth method; type: cell-based
MSSA9144 = assay: MIC, microdilution broth method; type: cell-based, S. aureus
VRE12201 = assay: MIC, microdilution broth method; type: cell-based, E. faecalis
EMRSA16 = assay: MIC, microdilution broth method; type: cell-based, Staphylococcus aureus
PA01 = assay: MIC, microdilution broth method; type: cell-based, Pseudomonas aeruginosa
EC12923 = assay: MIC, microdilution broth method; type: cell-based
Ab17978 = assay: MIC, microdilution broth method; type: cell-based
KP13368 = assay: MIC, microdilution broth method; type: cell-based; conditions: Gram-negative, in µg/mL
EMRSA 15 strain = assay: Reserpine assay; type: cell-based, S. aureus; conditions: compound at 0.25×MIC with reserpine
Method: (§1) A simple plate based method was used as described by Beyer et al. (24). […] Reserpine was added at a final concentration of 10 µg/mL (made up at 40 μg/mL in TSB, 50 μL per well). The bacteria were added at an OD of 0.01 in TSB (100 μL/well). The plate was a normal clear plate as used for MICs. OD was read every 30 minutes for 9 hours (the literature states 7 hours, but this is strain-dependent). Blanks of TSB and water were added to ensure no infections were present.
(§2) The mechanism of inhibition for reserpine involves direct binding to and competitive inhibition of the efflux pump during drug/H^+ antiport. This assay was validated as a method for testing active efflux of fluoroquinolones in Staphylococcus strains by Beyer et al. (24).

MSSA 9144 strain = assay: Reserpine assay; type: cell-based, S. aureus; conditions: compound at 0.25×MIC with reserpine
Method: as §1, §2

S. aureus SA1 = type: cell-based; conditions: for MIC: S. aureus SA1
S. aureus SA10 = assay: MIC, extended Gram-positive panel; type: cell-based; conditions: for MIC: S. aureus SA10, in µg/mL
S. aureus SA5 = assay: MIC, extended Gram-positive panel; type: cell-based; conditions: for MIC: S. aureus SA5
S. aureus SA7 = assay: MIC, extended Gram-positive panel; type: cell-based; conditions: for MIC: S. aureus SA7
S. aureus SA6 = assay: MIC, extended Gram-positive panel; type: cell-based; conditions: for MIC: S. aureus SA6
S. aureus SA9 = assay: MIC, extended Gram-positive panel; type: cell-based; conditions: for MIC: S. aureus SA9
E. faecalis EF1 = assay: MIC, extended Gram-positive panel; type: cell-based; conditions: for MIC: E. faecalis EF1
S. haemolyticus SH1 = assay: MIC, extended Gram-positive panel; type: cell-based; conditions: for MIC: S. haemolyticus SH1
E. faecium EF2 = assay: MIC, extended Gram-positive panel; type: cell-based; conditions: for MIC: E. faecium EF2, in µg/mL
S. aureus SA8 = assay: MIC, extended Gram-positive panel; type: cell-based; conditions: for MIC: S. aureus SA8
[2] = EC12923, Normal (without PMBN), in µg/mL

## Cc1cc(C)nc(N[C@@H]2CCN(c3c(F)cc4c(=O)c(C(=O)O)cn5c4c3OC[C@@H]5C)C2)n1 [KSN-BL7]
[1]
  efflux from the bacteria (reserpine growth assay): reduced efflux

## CCn1cc(C(=O)O)c(=O)c2cc(F)c(N3CCNCC3)cc21 [NOR]
S. aureus SA3
  MIC: 64 mg/L (≈ 200 µM)
S. aureus SA2
  MIC: 8-64
S. epidermidis SE1
  MIC: 1-4
S. aureus SA4
  MIC: 64 mg/L (≈ 200 µM)

## CCn1cc(C(=O)O)c(=O)c2cc(F)c(N3CCN(Cc4ccc5ccccc5c4)CC3)cc21 [ML-77-31]
VSE775; VSE775
  MIC: 4 mg/L (≈ 8.7 µM)
EMRSA15; EMRSA15, in µg/mL
  MIC: 4
VRE12204
  MIC: 2 mg/L (≈ 4.35 µM)
M6; M6, in µg/mL
  MIC: 16-32
MSSA9144
  MIC: 0.25 mg/L (≈ 0.544 µM)
VRE12201; VRE12201, in µg/mL
  MIC: 4
EMRSA16; EMRSA16
  MIC: 4 mg/L (≈ 8.7 µM)

## Cc1cc(N2CCN(c3c(F)cc4c(=O)c(C(=O)O)cn5c4c3OC[C@@H]5C)CC2)nc(C(C)C)n1 [ML-83-012, (S)-9-fluoro-10-(4-(2-isopropyl-6-methylpyrimidin-4-yl)piperazin-1-yl)-3-methyl-7-oxo-2,3-dihydro-7H-[1,4]oxazino[2,3,4-ij]quinoline-6-carboxylic Acid Hydrochloride]
VSE775; Enterococcus faecalis
  MIC: 0.5 mg/L
VSE775; VSE775, Gram-positive
  MIC: 1 mg/L
EMRSA15; EMRSA15, Gram-positive, in µg/mL
  MIC: 16
EMRSA15; Staphylococcus aureus
  MIC: 2 mg/L
PA01; Pseudomonas aeruginosa, Pseudomonas aeruginosa (PA01)
  MIC: 32 mg/L
M6; Klebsiella pneumoniae, Klebsiella pneumoniae (M6)
  MIC: 16 mg/L
M6; M6, Gram-negative, in µg/mL
  MIC: 16
VRE12201; Enterococcus faecalis, Enterococcus (VRE12201)
  MIC: ≤ 0.125 mg/L
VRE12201; VRE12201, Gram-positive, in µg/mL
  MIC: 0.5-1
EC12923; Escherichia coli, Escherichia coli (EC12923)
  MIC: 4 mg/L
Ab17978; Acinetobacter baumannii, Acinetobacter baumannii (AB17978)
  MIC: 8 mg/L
KP13368
  MIC: 64
EMRSA16; EMRSA16, Gram-positive
  MIC: 16 mg/L
EMRSA16; Staphylococcus aureus, Staphylococcus aureus (EMRSA16)
  MIC: 2 mg/L

## CCn1cc(C(=O)O)c(=O)c2cc(F)c(N3CCN(Cc4cccc5ccccc45)CC3)nc21 [ML-77-025]
EMRSA15; EMRSA15, vs parent fluoroquinolone
  fold potentiation of MIC: 64-128 fold
EMRSA16; EMRSA16, vs parent fluoroquinolone
  fold potentiation of MIC: 64-128 fold

## C[C@H]1COc2c(N3CC[C@@H](Nc4cnccn4)C3)c(F)cc3c(=O)c(C(=O)O)cn1c23 [KSN-BL1]
M6; Klebsiella pneumoniae (M6), read-out: MIC
  MIC: 0.5 mg/L (≈ 1.18 µM)

## CCn1cc(C(=O)O)c(=O)c2cc(F)c(N3CCN(Cc4ccc(S(=O)(=O)NCCc5c[nH]c6ccccc56)cc4)CC3)cc21 [ML-77-146]
PA01; PA01, +PMBN
  MIC +PMBN: 0.25
M6; M6, +PMBN
  MIC +PMBN: 28
Ab17978; Ab17978, +PMBN
  MIC +PMBN: 4

## C[C@H]1COc2c(N3CCN(c4ccncc4)CC3)c(F)cc3c(=O)c(C(=O)O)cn1c23 [ML-83-019]
M6; M6, Normal (without PMBN), in µg/mL
  MIC: 64
EC12923; [2]
  MIC: 32
Ab17978; Ab17978, Normal (without PMBN)
  MIC: 64 mg/L (≈ 151 µM)

## CCn1cc(C(=O)O)c(=O)c2cc(F)c(N3CCNCC3)cc21 [Norfloxacin, norfloxacin, reference compound]
EMRSA 15 strain
  efflux by the strain (reserpine assay): effluxed
MSSA 9144 strain
  efflux by the strain (reserpine assay): effluxed

## O=C(O)c1cn(C2CC2)c2cc(N3CCNCC3)c(F)cc2c1=O [Ciprofloxacin, ciprofloxacin, reference compound]
S. epidermidis SE1
  MIC: 0.5-1

## CCn1cc(C(=O)O)c(=O)c2cc(F)c(N3CCN(Cc4ccc(F)c5ccccc45)CC3)cc21 [ML-77-49]
VSE775; VSE775
  MIC: 8 mg/L (≈ 16.8 µM)
EMRSA15; EMRSA15, in µg/mL
  MIC: 8
MSSA9144
  MIC: 8 mg/L (≈ 16.8 µM)
VRE12201; VRE12201, in µg/mL
  MIC: 16
EMRSA16; EMRSA16
  MIC: 8 mg/L (≈ 16.8 µM)

## CCn1cc(C(=O)O)c(=O)c2cc(F)c(N3CCN(Cc4cccc5ccccc45)CC3)cc21 [ML-77-021]
S. aureus SA1
  MIC: 4 mg/L (≈ 8.7 µM)
S. aureus SA1; SA1, MIC of ML-77-005 vs CIP, of ML-77-021 vs NOR
  Fold decrease: ≥32
S. aureus SA3
  MIC: 2 mg/L (≈ 4.35 µM)
S. aureus SA3; SA3, MIC of ML-77-005 vs CIP, of ML-77-021 vs NOR
  Fold decrease: 32
S. aureus SA10
  MIC: 2
S. aureus SA10; SA10, MIC of ML-77-005 vs CIP, of ML-77-021 vs NOR
  Fold decrease: 64
S. aureus SA5
  MIC: 2 mg/L (≈ 4.35 µM)
S. aureus SA5; SA5, MIC of ML-77-005 vs CIP, of ML-77-021 vs NOR
  Fold decrease: ≥64
S. aureus SA2
  MIC: 1
S. aureus SA2; SA2, MIC of ML-77-005 vs CIP, of ML-77-021 vs NOR
  Fold decrease: 8-64
S. aureus SA7
  MIC: 2 mg/L (≈ 4.35 µM)
S. aureus SA7; SA7, MIC of ML-77-005 vs CIP, of ML-77-021 vs NOR
  Fold decrease: ≥64
S. aureus SA6
  MIC: 2 mg/L (≈ 4.35 µM)
S. aureus SA6; SA6, MIC of ML-77-005 vs CIP, of ML-77-021 vs NOR
  Fold decrease: ≥64
S. aureus SA9
  MIC: 2 mg/L (≈ 4.35 µM)
S. aureus SA9; SA9, MIC of ML-77-005 vs CIP, of ML-77-021 vs NOR
  Fold decrease: ≥64
E. faecalis EF1
  MIC: 4 mg/L (≈ 8.7 µM)
E. faecalis EF1; EF1, MIC of ML-77-005 vs CIP, of ML-77-021 vs NOR
  Fold decrease: ≥32
S. epidermidis SE1
  MIC: 1
S. epidermidis SE1; SE1, MIC of ML-77-005 vs CIP, of ML-77-021 vs NOR
  Fold decrease: 1-4
S. aureus SA4
  MIC: 2 mg/L (≈ 4.35 µM)
S. aureus SA4; SA4, MIC of ML-77-005 vs CIP, of ML-77-021 vs NOR
  Fold decrease: 32
S. haemolyticus SH1
  MIC: 4 mg/L (≈ 8.7 µM)
S. haemolyticus SH1; SH1, MIC of ML-77-005 vs CIP, of ML-77-021 vs NOR
  Fold decrease: 32
EMRSA 15 strain
  efflux by the strain (reserpine assay): cannot be effluxed
EMRSA 15 strain; listed as napthyl-linked norfloxacin
  efflux by the strain (reserpine assay): not effluxed
MSSA 9144 strain
  efflux by the strain (reserpine assay): cannot be effluxed; also recorded: not effluxed
E. faecium EF2
  MIC: 2-4
E. faecium EF2; EF2, MIC of ML-77-005 vs CIP, of ML-77-021 vs NOR
  Fold decrease: ≥32
S. aureus SA8
  MIC: 2 mg/L (≈ 4.35 µM)
S. aureus SA8; SA8, MIC of ML-77-005 vs CIP, of ML-77-021 vs NOR
  Fold decrease: 64

## O=C(O)c1cn(C2CC2)c2cc(N3CCN(Cc4cccc5ccccc45)CC3)c(F)cc2c1=O [ML-77-005]
S. aureus SA1
  MIC: 2 mg/L (≈ 4.24 µM)
S. aureus SA3
  MIC: 2 mg/L (≈ 4.24 µM)
S. aureus SA10
  MIC: 2
S. aureus SA5
  MIC: 2 mg/L (≈ 4.24 µM)
S. aureus SA2
  MIC: 0.5
S. aureus SA7
  MIC: 2 mg/L (≈ 4.24 µM)
S. aureus SA6
  MIC: 2 mg/L (≈ 4.24 µM)
S. aureus SA9
  MIC: 2 mg/L (≈ 4.24 µM)
E. faecalis EF1
  MIC: 2 mg/L (≈ 4.24 µM)
S. aureus SA4
  MIC: 2 mg/L (≈ 4.24 µM)
S. haemolyticus SH1
  MIC: 4 mg/L (≈ 8.48 µM)
E. faecium EF2
  MIC: 2
S. aureus SA8
  MIC: 2 mg/L (≈ 4.24 µM)

## C[C@H]1COc2c(N3CCN(c4ccncn4)CC3)c(F)cc3c(=O)c(C(=O)O)cn1c23 [ML-83-001, (S)-9-fluoro-3-methyl-7-oxo-10-(4-(pyrimidin-4-yl)piperazin-1-yl)-2,3-dihydro-7H-[1,4]oxazino[2,3,4-ij]quinoline-6-carboxylic Acid]
EC12923; [2]
  MIC: 1-4
